This note sets out measurements from US10968214B2, “KRas G12C inhibitors” (Eli Lilly and Company, priority 2018, dated 2021).

Each structure is given as a SMILES string. pIC50: −log10 of the molar value. Values joined by “and” are separate entries in the source; they are usually repeats but may differ in a detail not shown here. Identical values can stand only once. Like-named read-outs stand apart in the source and are kept apart here.

Series [1] deals with T1, constitutive RAS GTPAse activity in H358 cells (Homo sapiens, UniProt P01116, G12C).
T1 construct: host or cells: H358 human lung cancer cells
The series can be described thus: H358 Cellular Active RAS GTPase ELISA. Format: cell-based. The conditions noted are these: 2 hr. The text has this:
This assay is used to measure the ability of test compounds to inhibit constitutive RAS GTPAse activity in human lung cancer cells H358 (ATCC CRL-5807). The RAS GTPase ELISA kit (Active Motif Cat #52097) contains a 96-well plate pre-coated with glutathione in order to capture a kit-supplied GST-Raf-RBD protein. Activated RAS (GTP-bound) in cell extracts specifically bind to the Raf-RBD. Bound RAS is detected with a primary antibody that recognizes human KRas. A secondary antibody conjugated with HRP recognizes the primary antibody and a development solution provides a chemiluminescent readout.
H358 cells are plated at 80,000 cells/well in 90 μL serum free media (RPMI 1640, GIBCO) and incubated overnight at 37° C./5% CO2. The next morning, 10 μL of serially-diluted (3-fold) test compounds (500 μM top concentration) and 10 μL of controls (Maximum signal wells: 5% DMSO and Minimum signal wells: 500 μM LSN3429410 as an inhibitor) are added to the cell plate and incubated for 2 hr at 37° C./5% CO2. Complete Lysis/Binding Buffer is prepared containing Protease Inhibitor cocktail and GST-Raf-RBD and stored on ice. One hour before cell plate incubation is completed, 50 μL of GST-Raf-RBD is diluted in lysis/binding buffer, and buffer is added to the ELISA assay plate and which is incubated for 1 hour at 4° C. with gently rocking. After 2 hr, the cells are washed with 100 μL ice-cold PBS and lysed with 100 μL lysis/binding buffer. The cell plate is shaken for 10 min at RT. The cell plate is then centrifuged at 1500 rpm for 10 min at RT. During this time, 1× Wash Buffer is prepared at RT and then is used to wash (3×100 μL) the GST-Raf-RBD coated assay plate. After washing, 50 μL of cell lysate is added to the GST-Raf-RBD coated assay plate and incubated for 1 hour at RT with gentle shaking. During this incubation period, 1× Antibody Binding Buffer is prepared and brought to RT. The assay plate is washed 3×100 μL with 1× Wash Buffer and then 50 μL of Primary Antibody (diluted 1:500 in 1× Antibody Binding buffer) is added. The plate is incubated for 1 hour at RT. The assay plate is washed 3×100 μl with 1× Wash Buffer and then 50 μL of Secondary Antibody (diluted 1:5000 in 1× Antibody Binding buffer) is added and incubated for 1 hour at RT. The assay plate is washed 4×100 μL with 1× Wash buffer and then 50 μL of chemiluminescent working solution is added at RT. The assay plate is then read on an EnVision™ Plate Reader (Perkin Elmer) using a luminescence program.
The signal is converted to percent inhibition using the following equation: % Inhibition=100−[(Test Compound Signal−Median Minimum Signal)/(Median Maximum Signal−Median Minimum Signal)×100]. The Maximum signal is a control well without inhibitor.
(In general: An ELISA detects its analyte on a solid surface through an enzyme-linked reagent.)

The subject of the next series is H2122 xenograft. The series can be described thus: Anti-tumor growth activity, lung cancer H2122 xenograft mouse model. Format: in vivo. The conditions noted are these: for Tumor Growth Inhibition (%) or Regression (−%): H2122 Lung. Here is the method: To evaluate in vivo target inhibition and anti-tumor efficacy of a compound, Human lung cancer cells, H358 or H2122 are implanted into nude mice xenograft tumor models. Either H358 or H2122 cells (10×10^6 in a 1:1 Matrigel® mix, 0.2 mL total volume) are implanted by subcutaneous injection in hind leg of nude female mice (Harlan Laboratories). A total of 5 mice each group are used for efficacy study, and a total of 3-4 mice each group are used for target engagement and PD study. Treatment is initiated with oral administration (gavage) of a test compound or vehicle (20% Captisol®, 25 mM phosphate, pH 2.0 in 0.2 mL volume when the tumor size reaches approximately […]. Tumor growth and body weight are monitored over time to evaluate efficacy and signs of toxicity. Bidimensional measurements of tumors are performed twice a week and tumor volumes are calculated based on mid-axis length and mid-axis width. Tumor volume data are transformed to a log scale to equalize variance across time and treatment groups. The log volume data are analyzed with a two-way repeated measures analysis of variance by time and treatment using the mixed procedures in SAS software (version 8.2). The correlation model for the repeated measures is spatial power. Treated groups are compared to the control group at each time point. The mixed procedure is also used separately for each treatment group to calculate adjusted means and standard errors at each time point. Both analyses account for the autocorrelation within each animal. The adjusted means and standard errors are plotted for each treatment group versus time.
H2122 lung tumor cells (10×10^6) are implanted by subcutaneous injection in hind leg of nude female mice (Taconic Biosciences). A total of 5 mice each group are used for efficacy study.

T1 sequence (P01116 1-188 isoform P01116-2 G12C): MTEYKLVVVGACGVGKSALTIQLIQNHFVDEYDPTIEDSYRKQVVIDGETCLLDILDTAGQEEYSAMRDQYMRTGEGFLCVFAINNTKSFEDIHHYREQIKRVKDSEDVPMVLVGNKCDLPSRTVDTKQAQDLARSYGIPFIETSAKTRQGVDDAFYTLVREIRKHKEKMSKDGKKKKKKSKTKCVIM

As for `C=CC(=O)N1CCN(c2ncnc3c(F)c(-c4ccc(F)c5sc(N)nc45)c(Cl)cc23)CC1` [Example 1, 1-{4-[7-(2-Amino-7-fluoro-1,3-benzothiazol-4-yl)-6-chloro-8-fluoroquinazolin-4-yl]piperazin-1-yl}prop-2-en-1-one], the pIC50 in series [1] (read-out: RAS-GTP) and in series [1] (read-out: relative IC50) was 7.43 each time. Moreover, the “Tumor Growth Inhibition (%) or Regression (−%)” value was 72.97% with H2122 xenograft (30 mg/kg BID, 28 Day, oral, negative = regression); 77.17% and 77.2% in the series with H2122 xenograft (30 mg/kg QD, 28 Day, oral, negative = regression, 30 mg/kg); 91.06% and 91.1% with H2122 xenograft (100 mg/kg QD, 28 Day, oral, negative = regression, 100 mg/kg); 77.2 in the series with H2122 xenograft (Example 1 30 mg/kg QDx28); −1.4 with H2122 xenograft (Example 1 100 mg/kg QDx28). The “animal body weight loss” value in the series with H2122 xenograft (H2122 xenograft mice, 30 mg/kg once or twice daily or 100 mg/kg once daily for 28 days, oral) was “No significant animal body weight loss was observed”.
